Six compounds from patent publication US20120122692A1, “Method and Formulation for Eliminating Moss with Oregano Oil” (priority 2006, published 2012) can be followed below.

The test system of series [1] is silvery thread moss. The experiment in a line: Field test of spray treatments on silvery thread moss in a creeping bentgrass putting green: percent moss cover. It is filed as in vivo, Bryum argenteum. Here is the method: (§1) Aqueous solutions of oregano oil extract were tested on silvery thread moss growing on turf grass. The turf grass was a mature stand of “Penncross” creeping bentgrass Agrostis stolonifera L. on a sand based rootzone. IA grid of six inch square plots were arranged on the turf. Each plot was initially rated for percent moss cover on July, 2006. Only plots with greater than 50% moss cover tracked for this test. Table 1 summarized the 79 treatments tested. Oregano oil extract formulations were compared with carefentrazone and a non-treated control. Several oregano oil formulation includes a surfactant, and these formation are marked as ORG AS, ORG BS, ORG CS, and ORG DS. Each formulation was applied as a squirt or pump from a spray bottle containing the formulation. The spray bottle used was one quart bottle that delivered 2.8 ml per pump onto a four inch square are. All of the formulations were applied at least once on Jul. 6, 2006. Sequential applications were also additionally performed bi-weekly on Jul. 20, Aug. 17 and Sep. 12, 2006 for a total of one, three, or four bi-weekly application. Each carefentrazone application was made at a recommended rate of 6.7 fl. Oz. product/A.
(§2) The data from the test were analyzed using PROC ANOVA of the SAS software, Version 8 of the SAS System for Windows (SAS Institute, 1999). Means were separated (alpha=0.05) by Fischer's protected LSD (Fischer, 1966). Turf quality was rated on a scale of 1-10, where 10=best turf with no phyoxicity, 6=lowest acceptable turf quality and turf phytotoxicity, 1=worst turf quality with most phytotosixity and completely brown turf.

Series [2] concerns “Penncross” creeping bentgrass Agrostis stolonifera L. The experiment in a line: Field test of spray treatments on a creeping bentgrass putting green: turf quality / phytotoxicity rating. It is filed as in vivo. Particulars: scale 1-10: 10=best turf, no phytotoxicity, 6=lowest acceptable, 1=completely brown turf. As to the method:
as §1, §2

On to `Cc1nn(-c2cc(CC(Cl)C(=O)O)c(Cl)cc2F)c(=O)n1C(F)F` (stereo not drawn) [Treatment E13, Carfentrazone], for which the “% Moss Cover” value in series [1] (9 Oct (Oct. 9, 2006)) turned out to be 70.8%; in series [1] (12 Sep), 73.8%; in series [1] (17 Aug), 68.8%. Moreover, the “Turf Quality” value in series [2] (9 Oct) worked out at 10.0; in series [2] (12 Sep), 10.0; in series [2] (17 Aug), 9.6.

On to `Cc1nn(-c2cc(CC(Cl)C(=O)O)c(Cl)cc2F)c(=O)n1C(F)F` (stereo not drawn) [ES11, Carfentrazone], for which the “% Moss Cover” value is given as 77.0% in series [1] (9 Oct (Oct. 9, 2006)); 65.8% in series [1] (12 Sep); 82.0% in series [1] (17 Aug). For the same compound, the “Turf Quality” value in series [2] (9 Oct), in series [2] (12 Sep) and in series [2] (17 Aug) was 10.0 each time.

Turning to `Cc1nn(-c2cc(CC(Cl)C(=O)O)c(Cl)cc2F)c(=O)n1C(F)F` (stereo not drawn) [ES13, Carfentrazone], the “% Moss Cover” value in series [1] (9 Oct (Oct. 9, 2006)) amounted to 63.0%; in series [1] (12 Sep) it was 75.0%; in series [1] (17 Aug), 81.8%. Also, the “Turf Quality” value in series [2] (9 Oct), in series [2] (12 Sep) and in series [2] (17 Aug) was 10.0 throughout.

Turning to `Cc1nn(-c2cc(CC(Cl)C(=O)O)c(Cl)cc2F)c(=O)n1C(F)F` (stereo not drawn) [Treatment E16, Carfentrazone], the “% Moss Cover” value in series [1] (9 Oct (Oct. 9, 2006)) turned out to be 55.0%; in series [1] (12 Sep) it was 59.0%; in series [1] (17 Aug) it was 58.0%. The “Turf Quality” value in series [2] (9 Oct) was determined as 9.6; in series [2] (12 Sep) it was 10.0; in series [2] (17 Aug), 10.0.

Take `Cc1nn(-c2cc(CC(Cl)C(=O)O)c(Cl)cc2F)c(=O)n1C(F)F` (stereo not drawn) [Treatment E11, Carfentrazone]: the “% Moss Cover” value in series [1] (9 Oct (Oct. 9, 2006)) stood at 48.0%; in series [1] (12 Sep), 66.0%; in series [1] (17 Aug), 60.0%. Further, the “Turf Quality” value in series [2] (9 Oct), in series [2] (12 Sep) and in series [2] (17 Aug) was 10.0 in each case.

Regarding `Cc1nn(-c2cc(CC(Cl)C(=O)O)c(Cl)cc2F)c(=O)n1C(F)F` (stereo not drawn) [ES16, Carfentrazone], the “% Moss Cover” value in series [1] (9 Oct (Oct. 9, 2006)) is listed as 55.8%; in series [1] (12 Sep), 61.8%; in series [1] (17 Aug), 55.8%. The “Turf Quality” value in series [2] (9 Oct), in series [2] (12 Sep) and in series [2] (17 Aug) was 10.0 each time.
